From PubChem BioAssay (NCI)
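Assay format: 96-well plates, 48-hour exposure. The concentration for 50% growth inhibition is given as GI50. Definition used: TGI = concentration required for complete inhibition of growth.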

How the values were obtained:
Assay in all cases: inhibition of tumour cell growth, NCI panel, 48 h
[1] = test system: A549 NSCLC
[2] = test system: UACC-257 melanoma
[3] = test system: KM12 colon
[4] = test system: MOLT-4 leukemia
[5] = test system: NCI-H226 lung
[6] = test system: SK-MEL-5 melanoma
[7] = test system: CAKI-1 renal
[8] = test system: HL-60(TB) leukemia
[9] = test system: HOP-62 NSCLC
[10] = test system: SK-MEL-28 melanoma
[11] = test system: SR leukemia
[12] = test system: HCC-2998 colon
[13] = test system: MDA-MB-231 breast
[14] = test system: TK-10 renal
[15] = test system: OVCAR-8 ovarian
[16] = test system: NCI-H460 lung
[17] = test system: EKVX NSCLC
[18] = test system: UACC-62 melanoma
[19] = test system: 786-0 renal
[20] = test system: SF-268 CNS
[21] = test system: OVCAR-5 ovarian
[22] = test system: A498 renal
[23] = test system: SK-MEL-2 melanoma
[24] = test system: MDA-MB-468 breast
[25] = test system: OVCAR-3 ovarian
[26] = test system: M14 melanoma
[27] = test system: NCI-H23 lung
[28] = test system: LOX IMVI melanoma

## C=C1CC[C@@H]2[C@]3(C)COC(c4cn[nH]c4-c4ccc(OC)cc4)O[C@@H]3CC[C@@]2(C)[C@@H]1C/C=C1/C(=O)OCC1O (stereo partly specified)
[1]
  GI50: 3.32 µM
  TGI: 19.5 µM
[2]
  GI50: 2.46 µM
  TGI: 8.92 µM
[3]
  GI50: 2.38 µM
  TGI: 5.43 µM
[4]
  GI50: 2.21 µM
  TGI: > 100 µM
[5]
  GI50: 3.58 µM
  TGI: 18.4 µM
[6]
  GI50: 1.52 µM
  TGI: 2.95 µM
[7]
  GI50: 2.96 µM
  TGI: 12.1 µM
[8]
  GI50: 2.69 µM
  TGI: 14.7 µM
[9]
  GI50: 3.44 µM
  TGI: 14.2 µM
[10]
  GI50: 2.54 µM
  TGI: 5.91 µM
[11]
  GI50: 2.87 µM
  TGI: > 100 µM
[12]
  GI50: 2.87 µM
  TGI: 8.28 µM
[13]
  GI50: 2.39 µM
  TGI: 5.48 µM
[14]
  GI50: 4.12 µM
  TGI: 16.7 µM
[15]
  GI50: 3.34 µM
  TGI: > 100 µM
[16]
  GI50: 1.91 µM
  TGI: 3.9 µM
[17]
  GI50: 2.66 µM
  TGI: 10.5 µM
[18]
  GI50: 1.68 µM
  TGI: 4.06 µM
[19]
  GI50: 1.92 µM
  TGI: 3.6 µM
[20]
  GI50: 3.25 µM
  TGI: > 100 µM
[21]
  GI50: 3.9 µM
  TGI: 13.4 µM
[22]
  GI50: 17 µM
  TGI: 50.5 µM
[23]
  GI50: 3.97 µM
  TGI: 17.8 µM
[24]
  GI50: 2.17 µM
  TGI: 5.6 µM
[25]
  GI50: 2.27 µM
  TGI: 5.87 µM
[26]
  GI50: 3.14 µM
  TGI: 13.2 µM
[27]
  GI50: 2.51 µM
  TGI: 7.69 µM
[28]
  GI50: 1.73 µM
  TGI: 3.42 µM
